{"source": "patent US20060100168A1", "about": "“Method of treating cancer using adenosine and its analogs” (The Trustee of Boston University, priority 2002, published 2006)", "assay_type_in_all_cases": "cell-based, human", "key": {"MCF-7 cells [1]": {"tested_on": "MCF-7 cells", "assay": "Apoptosis by propidium iodide staining and flow cytometry (sub-diploid events)", "conditions": "100 μM", "procedure": "Flow Cytometry and Apoptosis Analysis: Cells were detached from tissue culture plates by trypsin treatment. Cells were collected by centrifugation at 1200 g for 5 minutes and washed once with PBS. Staining of cells with propidium iodide and analysis on a flow cytometer (FACScan, Becton Dickinson, Research Triangle Park, N.C.) was performed as described before (42). Data were analyzed with CellQuest software (Becton Dickinson, Research Triangle Park, N.C.). The percentage of cells appearing with a ploidy level smaller than a diploid content was calculated as an estimate of cells undergoing apoptosis."}, "[2]": {"tested_on": "estrogen receptor α (ERα)", "assay": "ERα protein level by Western blot in MCF-7 cells", "procedure": "Western Blot Analysis: Cells were washed three times in cold 1×PBS, and collected by scraping on ice. Western blot analysis was performed as we described before with the chemiluminescence method (41). […] Cyclin A, cyclin B1 and p27 antibodies were used at 1:500 dilutions. Cyclin E antibody was used at 1:1000 dilutions."}, "Hs578T cells": {"tested_on": "Hs578T cells", "assay": "Anchorage-dependent growth assay", "conditions": "100 μM, three days", "procedure": "(§1) Anchorage-dependent growth assay: Cells were plated into 6-well plates and grown overnight before treatments. The seeding concentration of MCF-7 cells was 2×10^5/well, which was determined during preliminary experiments as not allowing the cells to reach confluency within 3 days. Cells were treated either with vehicle or ligands, as indicated. Cells were detached by incubation with trypsin (Invitrogen, Carlsbad, Calif.) and counted with a hemacytometer before or after treatment."}, "ZR-75 cells": {"tested_on": "ZR-75 cells", "assay": "Anchorage-dependent growth assay", "conditions": "100 μM, three days", "procedure": "as §1"}, "MCF-7 cells [3]": {"tested_on": "MCF-7 cells", "assay": "Thymidine incorporation assay", "conditions": "treated 24 hours before thymidine", "procedure": "Thymidine Incorporation Assay. Thymidine incorporation assays were performed as described (Zhang, Y., Wang, Z., and Ravid, K. The cell cycle in polyploid megakaryocytes is associated with reduced activity of cyclin B1-dependent cdc2 kinase. J Biol Chem, 271: 4266-4272, 1996) with modifications. Rat bone marrow cells were cultured in 25 cm^2 flasks at a concentration of 20×10^6 cells per 2 ml. After drug treatment for 24 hours, cells were incubated with ^3H-thymidine at a final concentration of 3 μCi/ml for 8 hours. For MCF-7 cells, cells were cultured in 6-well plates and incubated with ^3H-thymidine for 2 hours after drug treatment. Cells were divided into two portions, sixty percent of which were processed as described (Id.) to obtain tritium counts. The rest of the cells were lysed with Western blotting lysis buffer and protein concentrations were determined by Bio-Rad protein assay reagent (Bio-Rad, Hercules, Calif.). Tritium counts were normalized with corresponding protein concentrations to account for cell number variations."}, "[4]": {"tested_on": "cyclin A, cyclin B1, cyclin E, p27", "assay": "Western blot of cyclins and Cdk inhibitor in MCF-7 cells", "conditions": "100 μM", "procedure": "(§2) Western Blot Analysis: Cells were washed three times in cold 1×PBS, and collected by scraping on ice. Western blot analysis was performed as we described before with the chemiluminescence method (41). Antibodies used in this study were: ERα (NeoMarkers, Ab-15), Cyclin A (Santa Cruz Biotech, H-432), Cyclin B1 (Santa Cruz Biotech, H-433), Cyclin E (Upstate Biotech, HE-12), p27 (Santa Cruz Biotech, F-8). ERα antibody was used at 1:100 dilutions. Cyclin A, cyclin B1 and p27 antibodies were used at 1:500 dilutions. Cyclin E antibody was used at 1:1000 dilutions."}, "pS2 mRNA": {"tested_on": "pS2 mRNA", "assay": "Semi-quantitative RT-PCR of pS2 mRNA in MCF-7 cells", "conditions": "100 μM, observed after 8 to 12 hours", "procedure": "(§3) Total RNA preparation and Reverse Transcription Polymerase Chain Reaction (RT-PCR): Total RNA from MCF-7 cells was prepared with Trizol (Invitrogen, Carlsbad, Calif.) as described before (41). For reverse transcription, 2 μg of RNA were used in a […] with random primers and M-MLV reverse transcriptase (Invitrogen, Carlsbad, Calif.), following the manufacturer's protocol. To control for possible contamination from genomic DNA in subsequent PCR reactions, control reverse transcription reactions were carried out under identical conditions, only without reverse transcriptase. After reverse transcription, 5% of the product was used in each PCR reaction. For the experiments analyzing A3 adenosine receptor (A3AR) expression, 27 cycles were used in the PCR reactions. Specific primers were designed for human A3AR, which match to two separate exons, according to genomic sequences (from GenBank). Sequences for the sense and antisense A3AR primers are: 5′tccatcatgtccttgctg3′ (SEQ ID NO: 1) and 5′gcacatgacaaccaggg3′ (SEQ ID NO.: 2). In the experiments analyzing estrogen receptor a (ERα) mRNA, semi-quantitative PCR reactions were carried out with 23 cycles for ERα primers and 19 cycles for GAPDH primers (used as a control). The cycle numbers were tested in previous experiments not to produce saturation effects. […]"}, "[5]": {"tested_on": "estrogen receptor β (ERβ) mRNA", "assay": "Semi-quantitative RT-PCR of ERβ mRNA in MCF-7 cells", "conditions": "100 μM", "procedure": "as §3"}, "[6]": {"tested_on": "ERE promoter activity (transcriptional activity of endogenous ERα)", "assay": "Reporter gene assay pERE-Tk-Luc in MCF-7 cells", "conditions": "MCF-7 transfected with pERE-Tk-Luc; 12 hours", "procedure": "Transfections and Reporter Gene Assay: Transient transfection was performed using FuGene6 (Roche, Indianapolis, Ind.) transfection reagent according to manufacturer's protocol. Circular reporter plasmid pERE-Tk-Luc at 10 μg and 10 μg of pCMV-β-Gal (as a measure of efficiency of trasnfection) were transfected with 50 μl of FuGene6. Cells were split into 6 well plates 12 hours after transfection, and incubated overnight in fresh medium. […] Luciferase and β-galactosidase activities were measured as described before (43, 44)."}, "[7]": {"tested_on": "ERα protein in ZR-75 cells", "assay": "ERα protein level in ZR-75 cells", "conditions": "not shown", "procedure": "as §2"}}}
{"smiles": "CNC(=O)[C@H]1O[C@@H](n2cnc3c(NCc4cccc(I)c4)ncnc32)[C@H](O)[C@@H]1O", "note": "[IB-MECA, N^6-(3-iodobenzyl)adenosine-5′-N-methyluronamide]", "values": [{"measurement": "Apoptosis, in words", "setting": "MCF-7 cells [1]; two days", "value": "non significant change"}, {"measurement": "Apoptosis", "setting": "MCF-7 cells [1]; 2 days of treatment, except adenosine (500 μM) and inosine (1 mM), number of apoptotic cells compared to vehicle control (set to 1), average ± SD", "value": "1.12 ± 0.02"}, {"measurement": "ERα Level", "setting": "[2]; 12 hours, 100 μM, except adenosine (500 μM), Western blot quantitated, vehicle control set to 1, average of two experiments", "value": 0.23}, {"measurement": "ERα protein level, in words", "setting": "[2]; Western blot", "value": "decreased"}, {"measurement": "ERα protein degradation", "setting": "[2]; protein synthesis inhibited by cycloheximide 50 μg/ml, 100 μM", "value": "did not notice any significant change in ERα protein degradation"}, {"measurement": "Cell counts after treatment compared to day 0, in words", "setting": "Hs578T cells", "value": "affected more severely"}, {"measurement": "Cell counts after treatment compared to day 0, in words", "setting": "ZR-75 cells", "value": "decreased only mildly"}, {"measurement": "Thymidine incorporation decreased to", "setting": "MCF-7 cells [3]", "value": 28, "unit": "%"}, {"measurement": "Cyclin A and B1 levels", "setting": "[4]", "value": "downregulated"}, {"measurement": "Cyclin E levels", "setting": "[4]", "value": "elevated"}, {"measurement": "cdk inhibitor p27 level", "setting": "[4]", "value": "sharp increase"}, {"measurement": "pS2 mRNA level", "setting": "pS2 mRNA", "value": "reduced"}, {"measurement": "Estrogen receptor β message level", "setting": "[5]", "value": "not significantly reduced"}, {"measurement": "Drop of ERE promoter activity", "setting": "[6]", "value": "more than 5 fold"}, {"measurement": "ERα protein levels, in words", "setting": "[7]", "value": "Reduction of ERα protein levels"}]}
